Reference: patent publication US8252807B2, “Methods of inhibiting the interaction between S100 and the receptor for advanced glycation end-products” (Board of Regents, The University of Texas System, priority 2007, dated 2012)

Experiments:
Panc-1 orthotopic tumors = assay: Tumor growth and metastasis in scid mice, Panc-1 orthotopic; type: in vivo; conditions: for effect on liver or lung metastasis: Panc-1
Method: FIGS. 6A-6F show the effect of cromolyn on Panc-1 tumor growth and metastasis in vivo. Panc-1 cells stably expressing the firefly luciferase gene were injected orthotopically into 4-week-old male CB 17 scid mice. […] Mice were divided into four groups of five mice each with an equivalent mean tumor size between groups. […] One group was treated with water (control), one group received gemcitabine bi-weekly (125 mg per kg body weight bi-weekly by intraperitoneal injection), one group was administered cromolyn daily (5 mg per kg body weight daily by intraperitoneal injection), and the final group was given the combination of cromolyn and gemcitabine. All groups were treated for six weeks. Bioluminescent imaging was done weekly to assess tumor growth. […] Means and 95% confidence intervals from two independent experiments are shown (n=20). Two-tailed two-sample (unpaired) Student's t-tests were used to determine P values.
The anti-tumorigenic capability of the drug cromolyn was assessed in 4-week-old male CB 17 scid mice (n=20) carrying orthopic tumors of BxPC-3, MPanc96, and Panc-1 cells stably expressing a Lenti-luc reporter. All mouse experiments were reviewed and approved by the Institutional Animal Care and Use Committee of UT MD Anderson Cancer Center. All mice were maintained in a sterile environment. Cages, bedding, food, and water were all autoclaved. All mice were maintained on a daily 12-hour light/12-hour dark cycle, according to the institutional animal welfare guidelines.
BxPC-3, MPanc96, and Panc-1 cells carrying the Lenti-luc reporter gene were grown to 80% confluence, harvested by incubation with trypsin-EDTA, washed twice in PBS, and resuspended to a final concentration of 4.0×10^6 cells/mL. Each mouse (n=20 mice per cell line) was injected (into the pancreas) with cell suspensions (50 μL). Bioluminescent imaging to determine tumor volume was performed 1 week after injection because the tumors became established within this amount of time. This initial tumor volume was used to divide the mice into four groups of five mice each, such that the mean tumor size was equal between groups (FIGS. 4A, 5A, and 6A). To allow enough time to observe differences among treatment groups, the mice were followed for the next 5 weeks. One group of mice was then treated biweekly with a sub-maximal concentration of gemcitabine (125 mg per kg body weight by i.p. injection). A second group was treated with a daily injection of cromolyn (5 mg per kg body weight by i.p. injection). A third group was treated with both bi-weekly gemcitabine and daily cromolyn. The control group was treated daily with vehicle. Treatments were continued for 5 weeks, and the effects on the tumor burden and metastasis were analyzed by weekly bioluminescence imaging (FIGS. 4B, 5B, and 6B). At the end of the experiment the mice were anesthetized with 1.5% isofluorane/air mixture and killed by cervical dislocation.
Bioluminescence imaging was conducted using a cryogenically cooled IVIS 100 imaging system coupled to a data acquisition computer running Living Image software (Xenogen Corp., Alameda, Calif.). Before imaging, mice were placed in an acrylic chamber, anesthetized with 1.5% isofluorane/air mixture, and injected i.p. with 15 mg/mL of luciferin potassium salt in PBS at a dose of 150 mg per kg body weight. A digital grey scale image of each mouse was acquired, followed by acquisition and overlay of a pseudocolor image representing the spatial distribution of detected photons emerging from active luciferase within the mouse. Tumor volume was quantified as the sum of all detected photons within the region of the tumor per second. At the end of experiment, the mice were killed, and tumors were surgically removed and weighed. After the primary tumors were removed, cancer cell dissemination and metastasis was visualized using IVIS imaging, and metastatic colonies were counted. […]

[1] = tested on: MPanc-96 orthotopic tumors; assay: Tumor growth and metastasis in scid mice, MPanc-96 orthotopic; type: in vivo; conditions: for liver metastasis, difference versus control / lung metastasis, difference versus control / tumor burden, difference versus control / lung metastasis, mean / liver metastasis, mean / tumor burden (primary tumor volume by bioluminescence), mean: MPanc-96; for lung metastasis, mean: control mean=5.9×10^7; for liver metastasis, mean: control mean=9.4×10^8; for tumor burden (primary tumor volume by bioluminescence), mean: end of six weeks, cromolyn 5 mg per kg daily i.p., gemcitabine 125 mg per kg bi-weekly i.p., control mean=1.1×10^10
Method: FIGS. 5A-5F show the effect of cromolyn on MPanc-96 tumor growth and metastasis in vivo. MPanc-96 cells stably expressing the firefly luciferase gene were injected orthotopically into 4-week-old male CB 17 scid mice. […] Mice were divided into four groups of five mice each with an equivalent mean tumor size between groups. […] One group was treated with water (control), one group received gemcitabine bi-weekly (125 mg per kg body weight bi-weekly by intraperitoneal injection), one group was administered cromolyn daily (5 mg per kg body weight daily by intraperitoneal injection), and the final group was given the combination of cromolyn and gemcitabine. All groups were treated for six weeks. Bioluminescent imaging was done weekly to assess tumor growth. […] Means and 95% confidence intervals from two independent experiments are shown (n=20). Two-tailed two-sample (unpaired) Student's t-tests were used to determine P values. The anti-tumorigenic capability of the drug cromolyn was assessed in 4-week-old male CB 17 scid mice (n=20) carrying orthopic tumors of BxPC-3, MPanc96, and Panc-1 cells stably expressing a Lenti-luc reporter. All mouse experiments were reviewed and approved by the Institutional Animal Care and Use Committee of UT MD Anderson Cancer Center. All mice were maintained in a sterile environment. Cages, bedding, food, and water were all autoclaved. All mice were maintained on a daily 12-hour light/12-hour dark cycle, according to the institutional animal welfare guidelines. BxPC-3, MPanc96, and Panc-1 cells carrying the Lenti-luc reporter gene were grown to 80% confluence, harvested by incubation with trypsin-EDTA, washed twice in PBS, and resuspended to a final concentration of 4.0×10^6 cells/mL. Each mouse (n=20 mice per cell line) was injected (into the pancreas) with cell suspensions (50 μL). […] This initial tumor volume was used to divide the mice into four groups of five mice each, such that the mean tumor size was equal between groups (FIGS. 4A, 5A, and 6A). To allow enough time to observe differences among treatment groups, the mice were followed for the next 5 weeks. One group of mice was then treated biweekly with a sub-maximal concentration of gemcitabine (125 mg per kg body weight by i.p. injection). A second group was treated with a daily injection of cromolyn (5 mg per kg body weight by i.p. injection). A third group was treated with both bi-weekly gemcitabine and daily cromolyn. The control group was treated daily with vehicle. Treatments were continued for 5 weeks, and the effects on the tumor burden and metastasis were analyzed by weekly bioluminescence imaging (FIGS. 4B, 5B, and 6B). At the end of the experiment the mice were anesthetized with 1.5% isofluorane/air mixture and killed by cervical dislocation. […] Before imaging, mice were placed in an acrylic chamber, anesthetized with 1.5% isofluorane/air mixture, and injected i.p. with 15 mg/mL of luciferin potassium salt in PBS at a dose of 150 mg per kg body weight. A digital grey scale image of each mouse was acquired, followed by acquisition and overlay of a pseudocolor image representing the spatial distribution of detected photons emerging from active luciferase within the mouse. Tumor volume was quantified as the sum of all detected photons within the region of the tumor per second. At the end of experiment, the mice were killed, and tumors were surgically removed and weighed. After the primary tumors were removed, cancer cell dissemination and metastasis was visualized using IVIS imaging, and metastatic colonies were counted. Subsequently, tissues were fixed with formaldehyde, and histology was used to verify the accuracy of the bioluminescence data.

Question: How did the “effect on liver or lung metastasis” value (Panc-1 orthotopic tumors) turn out when `Nc1ccn([C@@H]2O[C@H](CO)[C@@H](O)C2(F)F)c(=O)n1` [gemcitabine] was run?
Answer: neither cromolyn nor gemcitabine nor the combination reduced liver or lung metastasis

Question: And the “body weight, difference versus control” value (Panc-1 orthotopic tumors; Panc-1 model)?
Answer: 4.8 g

Question: What about the “body weight at the end of the experiment, mean” value (Panc-1 orthotopic tumors; Panc-1 model, control mean=32.0 g) of the same compound?
Answer: 27.2 g

Question: What about the “liver metastasis, difference versus control” value [1] of the same compound?
Answer: 8.1×10^8 photons/sec

Question: And the “lung metastasis, difference versus control” value [1]?
Answer: 5.4×10^7 photons/sec

Question: What about the “tumor burden, difference versus control” value [1] of the same compound?
Answer: 6.9×10^9 photons/sec

Question: And the “lung metastasis, mean” value [1]?
Answer: 5.0×10^6 photons/sec

Question: And the “liver metastasis, mean” value [1]?
Answer: 1.2×10^8 photons/sec

Question: And the “tumor burden (primary tumor volume by bioluminescence), mean” value [1]?
Answer: 4.1×10^9 photons/sec

Question: Which results are given for `O=C(O)c1cc(=O)c2c(OCC(O)COc3cccc4oc(C(=O)O)cc(=O)c34)cccc2o1` [cromolyn, disodium 1,3-bis[(2′-carboxylatochromon-5′-yl)oxy]-2-hydroxypropane]?
Answer: effect on liver or lung metastasis (Panc-1 orthotopic tumors): neither cromolyn nor gemcitabine nor the combination reduced liver or lung metastasis; effect on body weight (Panc-1 orthotopic tumors; Panc-1 model, up to 6 weeks): no effect on body weight; tumor development in Panc-1 model (Panc-1 orthotopic tumors; cromolyn 5 mg per kg daily i.p., alone or with gemcitabine): did not reduce tumor development or increase the effectiveness of gemcitabine; liver metastasis, difference versus control [1]: 7.2×10^8 photons/sec; lung metastasis, difference versus control [1]: 5.6×10^7 photons/sec; tumor burden, difference versus control [1]: 6.2×10^9 photons/sec; lung metastasis, mean [1]: 3.2×10^6 photons/sec; liver metastasis, mean [1]: 2.2×10^8 photons/sec; tumor burden (primary tumor volume by bioluminescence), mean [1]: 4.8×10^9 photons/sec; effect on body weight ([1]; MPanc-96 model, up to 6 weeks): no effect on body weight
